# Key:
# [1] = stability of 18F-labeled model bioconjugates, physiological conditions; assay type: physicochemical; settings: buffer, pH 7.4
# Method: (§1) To a solution of 90 μL aqueous K2CO3 buffer (pH 7.4) were added 10 μL of the respective ^18F-labeled (SiFA)SeFe-bioconjugate. The solution was kept at 37 °C and for each time point (0, 30, 60, 90, 120 min) 10 μL were analyzed via Radio-TLC. The half-life was calculated from the ratio between free fluorine-18 and labeled peptide.
# [2] = stability of 18F-labeled model bioconjugates, lutetium labeling conditions; assay type: physicochemical; settings: buffer, pH 5.5
# Method: as §1, with “of 10” for “of 90”, “aqueous sodium acetate” for “aqueous K2CO3”, “(pH 5.5) and 80 μL 0.04 M HCl” for “(pH 7.4)”, “at 90” for “at 37”
# [3] = stability of 18F-labeled model bioconjugates, reverse isotopic exchange; assay type: physicochemical; settings: buffer, pH 6.5
# Method: To 10 μL of the respective ^18F-labeled (SiFA)SeFe-bioconjugate, a solution of 10 μL 10 mM NaF (pH = 6.5) and 80 μL H2O was added. The solution was kept at RT and for each time point (0, 30, 60, 90, 120 min) 10 μL was analyzed via Radio-TLC. The half-life was calculated from the ratio between free fluorine-18 and labeled peptide.
# human serum albumin = target: T1, human serum albumin (Homo sapiens, UniProt P02768); experiment: human serum albumin binding by HPAC; assay type: in vitro ADME; settings: non-radiolabeled compounds, n=1
# T1 construct: purchased Daicel, Tokio, Japan Chiralpak HSA column (50 × 3 mm, 5 μm, H13 h-2433)
# T1 sequence (P02768 25-609): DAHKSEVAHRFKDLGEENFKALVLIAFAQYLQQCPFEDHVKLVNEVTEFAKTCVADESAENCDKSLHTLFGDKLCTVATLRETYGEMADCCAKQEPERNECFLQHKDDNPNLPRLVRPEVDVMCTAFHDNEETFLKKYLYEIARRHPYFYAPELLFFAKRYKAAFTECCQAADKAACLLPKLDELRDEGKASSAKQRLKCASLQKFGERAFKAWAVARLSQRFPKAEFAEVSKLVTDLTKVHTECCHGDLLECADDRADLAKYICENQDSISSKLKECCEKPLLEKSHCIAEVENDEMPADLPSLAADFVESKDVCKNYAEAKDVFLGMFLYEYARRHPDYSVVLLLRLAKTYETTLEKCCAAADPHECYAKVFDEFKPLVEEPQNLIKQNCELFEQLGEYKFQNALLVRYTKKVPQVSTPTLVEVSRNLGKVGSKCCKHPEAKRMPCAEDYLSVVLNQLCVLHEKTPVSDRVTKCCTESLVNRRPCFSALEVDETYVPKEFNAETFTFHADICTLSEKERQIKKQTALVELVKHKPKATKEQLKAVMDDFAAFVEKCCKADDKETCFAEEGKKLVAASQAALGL
# Method: High performance affinity chromatography (HPAC) was used to determine representative values for HSA binding of the ligands and their references, since it can influence the distribution and pharmacokinetics of radiopharmaceuticals.[43],[44]
# HSA binding studies were performed according to a previously published procedure, using RP-HPLC and HSA which is solid-phase fixed on a Chiralpak HSA column (50 × 3 mm, 5 μm, H13 h-2433, Daicel, Tokio, Japan).[51] A flow rate of 0.5 mL/min at RT was used. A freshly prepared 50 mM aqueous solution of NH4OAc (pH 6.9) was used as mobile phase A, and isopropanol (HPLC grade, VWR, Germany) was used as mobile phase B. A gradient of 100% A (0 to 3 min) followed by 80% A (3 to 40 min) was used for the experiments. Before the analysis of all compounds, the column was calibrated with nine reference substances having HSA binding known from the literature in the range of 13 to 99%.[51],[52] All compounds, were prepared in a 1/1 mixture (v/v) of isopropanol and a 50 mM aqueous solution of NH4OAc (pH 6.9) at a final concentration of 0.5 mg/mL. Nonlinear regression was performed using OriginPro 2016G software (North-ampton, United States).
# [4] = stability in human serum (radio-RP-HPLC); assay type: in vitro ADME; settings: 37 °C; for Intact tracer in human serum, 24 h: n=3; for remaining at 24 h, 25 MBq/mL: human, serum, n=3, read-out: Intact tracer in human serum, 24 h
# Method: Stability studies in human serum were also performed by incubating the ^18F-labeled ligands [^18F][^natGa]Ga-(SiFA)-SeFe-rhTATE1, [^18F][^natGa]Ga-(SiFA)SeFe-rhTATE2, [^18F][^natLu]Lu-(SiFA)SeFe-rhTATE3 and [^18F][^natLu]Lu-(SiFA)BA-rhTATE3 (for 1 h), as well as the ^177Lu-labeled ligands [^177Lu]Lu-(SiFA)SeFe-rhTATE3 and [^177Lu]Lu-(SiFA)BA-rhTATE3 for 1 and 24 h at 37 °C (Figure 3D). Afterward, the samples were analyzed for the intact tracer by radio-RP-HPLC (see SI, Table S4).
# 5 MBq of the respective ^18F-/^177Lu-labeled compound was added to 200 μL of human serum (from a healthy volunteer) and incubated at 37 °C for 1 h. After the addition of 50 vol % of cold ethanol and 150 vol % of cold MeCN, centrifugation was performed at 13.000 rpm for 20 min. The supernatant was decanted and centrifuged at 13.000 rpm for 10 min in a centrifuge tube with a 0.45 μm cellulose acetate filter. […] of the remaining filtrate was injected into RP-HPLC and the number of intact radioligand was quantified.
# [5] = physiological conditions, 18F-labeled, Radio-TLC, read-out: Half-life, pH 7.4, 37 °C
# [6] = lutetium labeling conditions, 18F-labeled, Radio-TLC, read-out: Half-life, pH 5.5, 90 °C (converted)
# [7] = reverse isotopic exchange, 18F-labeled, Radio-TLC, read-out: Half-life, pH 6.5, 1 mM aq. NaF, RT
structure (smiles),measurement,setting,value
"CC(C)(C)[Si](F)(c1cc(CNC(=O)[C@@H](N)CCC(=O)O)cc(C(=O)NCC(=O)N[C@@H](CCCCN)C(=O)O)c1)C(C)(C)C [3X1, (3-(((S)-2-amino-4-carboxybutanamido)methyl)-5-(di-tert-butylfluorosilyl)benzoyl)glycyl-L-lysine]",half-life,[1]; [5],57 ± 1.3 min
same,half-life,[2]; [6],40 ± 0.6 h
same,half-life,[3]; [7],34 ± 2.1 min
"C[C@@H](O)[C@H](NC(=O)[C@@H]1CSSC[C@H](NC(=O)[C@@H](Cc2ccccc2)NC(=O)CN2CCN(CC(=O)O)CCN(CC(=O)NC[C@@H](NC(=O)c3cc(CNC(=O)C[C@@H](N)C(=O)O)cc([Si](F)(C(C)(C)C)C(C)(C)C)c3)C(=O)O)CCN(CC(=O)O)CC2)C(=O)N[C@@H](Cc2ccc(O)cc2)C(=O)N[C@H](Cc2c[nH]c3ccccc23)C(=O)N[C@@H](CCCCN)C(=O)N[C@@H]([C@@H](C)O)C(=O)N1)C(=O)O [[natGa]Ga-(SiFA)SeFe-rhTATE2, metal not drawn]",HSA binding (HPAC),human serum albumin,99%
same,HSA binding (HPAC),human serum albumin; listed as [^natGa]Ga-(SiFA)SeFe-rhTATE2,98−99%
"CC(C)(C)[Si](F)(c1cc(CNC(=O)[C@@H](N)CCC(=O)O)cc(C(=O)NCC(=O)N[C@@H](Cc2ccc(O)cc2)C(=O)O)c1)C(C)(C)C [3X3, (S)-4-amino-5-((3-((2-(((S)-1-carboxy-2-(4-hydroxyphenyl)-ethyl)amino)-2-oxoethyl)carbamoyl)-5-(di-tert-butylfluorosilyl)-benzyl)amino)-5-oxopentanoic acid]",half-life,[1]; [5],29 ± 0.8 min
same,half-life,[2]; [6],42 ± 7.8 h
same,half-life,[3]; [7],57 ± 1.6 min
"CC(C)(C)[Si](F)(c1cc(CN)cc(C(=O)NCC(=O)N[C@@H](CC(=O)O)C(=O)O)c1)C(C)(C)C [1X2, (3-(aminomethyl)-5-(di-tert-butylfluorosilyl)benzoyl)glycyl-L-as-partic acid]",half-life,[1],299 ± 12 min
same,half-life,[2],37 ± 11 h
same,half-life,[3],25 ± 6.1 min
"CC(C)(C)[Si](F)(c1cc(CN)cc(C(=O)NCC(=O)N[C@@H](Cc2ccc(O)cc2)C(=O)O)c1)C(C)(C)C [1X3, (3-(aminomethyl)-5-(di-tert-butylfluorosilyl)benzoyl)glycyl-L-tyrosine]",half-life,[1],14 ± 3 min
same,half-life,[2],43 ± 2.8 h
same,half-life,[3],27 ± 2.2 min
"CC(C)(C)[Si](F)(c1cc(CNC(=O)[C@@H](N)CCCCN)cc(C(=O)NCC(=O)N[C@@H](CC(=O)O)C(=O)O)c1)C(C)(C)C [2X2, (3-(di-tert-butylfluorosilyl)-5-(((S)-2,6-diaminohexanamido)-methyl)benzoyl)glycyl-L-aspartic acid]",half-life,[1]; [5],43 ± 1.3 min
same,half-life,[2]; [6],49 ± 7.1 h
same,half-life,[3]; [7],29 ± 0.8 min
"C[C@@H](O)[C@H](NC(=O)[C@@H]1CSSC[C@H](NC(=O)[C@@H](Cc2ccccc2)NC(=O)CN2CCN(CC(=O)O)CCN(CC(=O)NC[C@@H](NC(=O)c3cc(CN)cc([Si](F)(C(C)(C)C)C(C)(C)C)c3)C(=O)O)CCN(CC(=O)O)CC2)C(=O)N[C@@H](Cc2ccc(O)cc2)C(=O)N[C@H](Cc2c[nH]c3ccccc23)C(=O)N[C@@H](CCCCN)C(=O)N[C@@H]([C@@H](C)O)C(=O)N1)C(=O)O [[natGa]Ga-(SiFA)SeFe-rhTATE1, metal not drawn]",HSA binding (HPAC),human serum albumin,99%
same,HSA binding (HPAC),human serum albumin; listed as [^natGa]Ga-(SiFA)SeFe-rhTATE1,98−99%
"C[C@@H](O)[C@H](NC(=O)[C@@H]1CSSC[C@H](NC(=O)[C@@H](Cc2ccccc2)NC(=O)COCCOCCNC(=O)[C@@H](CNC(=O)CN2CCN(CC(=O)O)CCN(CC(=O)O)CCN(CC(=O)O)CC2)NC(=O)COCCOCCNC(=O)c2ccc([Si](F)(C(C)(C)C)C(C)(C)C)cc2)C(=O)N[C@@H](Cc2ccc(O)cc2)C(=O)N[C@H](Cc2c[nH]c3ccccc23)C(=O)N[C@@H](CCCCN)C(=O)N[C@@H]([C@@H](C)O)C(=O)N1)C(=O)O [[177Lu]Lu-(SiFA)BA-rhTATE3, metal not drawn]","Intact tracer in human serum, 24 h",[4],60 ± 1.0%
same,"remaining at 24 h, 25 MBq/mL",[4],60%
"CC(C)(C)[Si](F)(c1cc(CNC(=O)[C@@H](N)CCC(=O)O)cc(C(=O)NCC(=O)N[C@@H](CC(=O)O)C(=O)O)c1)C(C)(C)C [3X2, (3-(((S)-2-amino-4-carboxybutanamido)methyl)-5-(di-tert-butylfluorosilyl)benzoyl)glycyl-L-aspartic acid]",half-life,[1]; [5],597 ± 43 min
same,half-life,[2]; [6],59 ± 5.2 h
same,half-life,[3]; [7],90 ± 3.6 min
"CC(C)(C)[Si](F)(c1cc(CNC(=O)[C@@H](N)CCCCN)cc(C(=O)NCC(=O)N[C@@H](CCCCN)C(=O)O)c1)C(C)(C)C [2X1, (3-(di-tert-butylfluorosilyl)-5-(((S)-2,6-diaminohexanamido)-methyl)benzoyl)glycyl-L-lysine]",half-life,[1]; [5],18 ± 2.1 min
same,half-life,[2]; [6],25 ± 5.5 h
same,half-life,[3]; [7],14 ± 0.8 min
"CC(C)(C)[Si](F)(c1cc(CN)cc(C(=O)NCC(=O)N[C@@H](CCCCN)C(=O)O)c1)C(C)(C)C [1X1, (3-(aminomethyl)-5-(di-tert-butylfluorosilyl)benzoyl)glycyl-L-lysine]",half-life,[1],27 ± 2.1 min
same,half-life,[2],38 ± 0.9 h
same,half-life,[3],10 ± 1.1 min
"C[C@@H](O)[C@H](NC(=O)[C@@H]1CSSC[C@H](NC(=O)[C@@H](Cc2ccccc2)NC(=O)COCCOCCNC(=O)[C@@H](CNC(=O)CN2CCN(CC(=O)O)CCN(CC(=O)O)CCN(CC(=O)O)CC2)NC(=O)COCCOCCNC(=O)c2cc(CN)cc([Si](F)(C(C)(C)C)C(C)(C)C)c2)C(=O)N[C@@H](Cc2ccc(O)cc2)C(=O)N[C@H](Cc2c[nH]c3ccccc23)C(=O)N[C@@H](CCCCN)C(=O)N[C@@H]([C@@H](C)O)C(=O)N1)C(=O)O [[natLu]Lu-(SiFA)SeFe-rhTATE3, metal not drawn]",HSA binding (HPAC),human serum albumin,98%
same,HSA binding (HPAC),human serum albumin; listed as [^natLu]Lu-(SiFA)SeFe-rhTATE3,98−99%
"CC(=O)N[C@@H]1[C@@H](O)[C@H](O)[C@@H](CO)O[C@H]1NC(=O)C[C@H](NC(=O)CON=CCCC[N+](C)(C)Cc1ccc([Si](F)(C(C)(C)C)C(C)(C)C)cc1)C(=O)N[C@@H](CC(=O)O)C(=O)N[C@@H](CC(=O)O)C(=O)NCCOCCOCC(=O)N[C@H](Cc1ccccc1)C(=O)N[C@H]1CSSC[C@@H](C(=O)N[C@H](C(=O)O)[C@@H](C)O)NC(=O)[C@H]([C@@H](C)O)NC(=O)[C@H](CCCCN)NC(=O)[C@@H](Cc2c[nH]c3ccccc23)NC(=O)[C@H](Cc2ccc(O)cc2)NC1=O [SiFAlin-TATE, reference compound]",HSA binding (HPAC),human serum albumin,92%
"CC(C)(C)[Si](F)(c1cc(CNC(=O)[C@@H](N)CCCCN)cc(C(=O)NCC(=O)N[C@@H](Cc2ccc(O)cc2)C(=O)O)c1)C(C)(C)C [2X3, (3-(di-tert-butylfluorosilyl)-5-(((S)-2,6-diaminohexanamido)-methyl)benzoyl)glycyl-L-tyrosine]",half-life,[1]; [5],21 ± 6 min
same,half-life,[2]; [6],48 ± 13 h
same,half-life,[3]; [7],20 ± 2.9 min
"C[C@@H](O)[C@H](NC(=O)[C@@H]1CSSC[C@H](NC(=O)[C@@H](Cc2ccccc2)NC(=O)COCCOCCNC(=O)[C@@H](CNC(=O)CN2CCN(CC(=O)O)CCN(CC(=O)O)CCN(CC(=O)O)CC2)NC(=O)COCCOCCNC(=O)c2cc(CN)cc([Si](F)(C(C)(C)C)C(C)(C)C)c2)C(=O)N[C@@H](Cc2ccc(O)cc2)C(=O)N[C@H](Cc2c[nH]c3ccccc23)C(=O)N[C@@H](CCCCN)C(=O)N[C@@H]([C@@H](C)O)C(=O)N1)C(=O)O [[177Lu]Lu-(SiFA)SeFe-rhTATE3, metal not drawn]","Intact tracer in human serum, 24 h",[4],94 ± 3.0%
same,"remaining at 24 h, 25 MBq/mL",[4],94%
